Experimental data published in patent EP4079301A2, “COMPOSITIONS COMPRISING CANNABIDIOL AND, OPTIONALLY, BISABOLOL” (Symrise AG, priority 2021, dated 2022).

How the values were obtained:
Type in all cases: cell-based
[1] = tested on: Cortisol; assay: Cortisol competitive ELISA on explant culture media; settings: for Cortisol (ng/mL), Mean: released in BEM culture medium
Experimental: (§1) On day 0 (D0), D1, D4, D5 and D7, the product P was topically applied on the basis of 2 mg/cm^2 (± 2µL per explant) and spread using a small spatula. […] The culture medium was half renewed (1 ml per well) on D1, D4, D5 and D7.
(§2) On day 0 (D0), the 3 explants from the batch T0 were collected and cut into 2 parts: half was fixed in formalin buffered solution and half was frozen at -80°C. On D5 and D9, the 3 explants of each batch were collected and processed in the same way than on day 0; the fourth explants were kept frozen at -80°C. The culture media of all explants were collected on D1, D4, D5, D7 (1 ml per explant) and on day 9 (2 ml per explant) and stored at -20°C for cortisol dosage.
Cortisol competitive assay was performed with human Cortisol ELISA kit (Enzo life sciences, ref. 25-0358-ADI-901-071). According to provider's guidelines, the culture media were diluted at 1/200 and the Cortisol standards were incubated for 2 hours at room temperature with a monoclonal antibody specific to Cortisol in a sample or an alkaline phosphatase molecule which has Cortisol covalently attached to it. […] The intensity of the bound yellow color is inversely proportional to the concentration of Cortisol in either standards or samples. Absorbance at 405 nm was measured using the M200Pro Tecan microplate reader and Magellan7 software. Cortisol assay was performed on culture BEM media on day 5 (pool of D1, D4, D5 culture media) and day 9 (pool of D7 and D9 culture media). The concentration of cortisol was expressed in ng/ml.

[2] = tested on: Beta-endorphin; assay: Beta-endorphin immunostaining of explant skin sections with image analysis; settings: for Beta-endorphin in the epidermis (% surface), Average: image analysis
Experimental: as §1, §2
(§3) After fixation for 24 hours in buffered formalin solution, the samples were dehydrated and impregnated in paraffin using a Leica PEARL dehydration automat. The samples were then paraffin-embedded using a Leica EG 1160 embedding station. 5-µm-thick sections of formol fixed paraffin-embedded (FFPE) skin sections were realized using a Leica RM 2125 Minot-type microtome, and the sections were then mounted on Superfrost® Plus glass slides. The frozen samples were cut into 7-µm-thick sections using a Leica CM 3050 cryostat. Sections were then mounted on Superfrost® plus silanized glass slides. Microscopical observations were realized using a Leica DMLB, a BX43 or BX63 Olympus microscope. Pictures were digitized with an Olympus DP72 or DP74 camera and the cellSens dimension data storing software (Olympus).
The immunostaining was assessed by microscopical observation and image analysis.
The images analyses were performed on all the images of each batch, according to the following method using cellSens software. The process is illustrated in Figure 2. For each batch of explants, the percentage of the region of interest covered by the staining (stained surface percentage) is determined by image analysis according to the previously described process.
The stained surface percentage (Surf%) for each treatment was compared to the untreated condition => P vs T.

[3] = tested on: epidermis and dermis; assay: Control of cell viability of skin explants (Masson's trichrome staining, Goldner variant); settings: for Cell viability Dermis / Cell viability Epidermis: explants
Experimental: The explants were distributed into 3 batches as follows:
as §1, §2, §3
The observation of the cell viability of the epidermis and dermis was performed after staining of formalin-fixed paraffin- embedded (FFPE) skin sections according to Masson's trichrome, Goldner variant.

[4] = topical 2 mg/cm^2, day 5 (batch PJ5)
[5] = topical 2 mg/cm^2, day 9 (batch PJ9)

Q: For `C=C(C)[C@@H]1CCC(C)=C[C@H]1c1c(O)cc(CCCCC)cc1O` [Cannabidiol], which decrease of cortisol ([1]; D5, compared to the batch TJ5) is on record?
A: 24%

Q: What about the decrease of cortisol ([1]; D9, compared to the batch TJ9) of the same molecule?
A: 18%

Q: What about the “Cortisol (ng/mL), Mean” value ([1]; day 5 (pool of D1, D4, D5), batch PJ5) of the same molecule?
A: 246.5 ng/mL

Q: And the “Cortisol (ng/mL), Mean” value ([1]; day 9 (pool of D7 and D9), batch PJ9)?
A: 255.1 ng/mL

Q: And the “Effect of product application on beta-endorphin expression (microscopical observation of staining in the epidermis)” value ([2]; D5, compared to the batch TJ5)?
A: slight increase

Q: And the “increase of beta-endorphin expression” value ([2]; D5, compared to the batch TJ5, image analysis)?
A: 24%

Q: What about the “Effect of product application on beta-endorphin expression (microscopical observation of staining in the epidermis)” value ([2]; D9, compared to the batch TJ9) of the same molecule?
A: slight increase

Q: What about the “increase of beta-endorphin expression” value ([2]; D9, compared to the batch TJ9, image analysis) of the same molecule?
A: 30%

Q: And the “Beta-endorphin in the epidermis (% surface), Average” value ([2]; day 5 (batch PJ5))?
A: 33.1 % surface

Q: What about the “Beta-endorphin in the epidermis (% surface), Average” value ([2]; day 9 (batch PJ9)) of the same molecule?
A: 12.5 % surface

Q: And the “Effect of product application on cell viability” value ([3]; D5, compared to the batch TJ5)?
A: no modification

Q: What about the “Effect of product application on cell viability” value ([3]; D9, compared to the batch TJ9) of the same molecule?
A: no modification

Q: And the “Cell viability Dermis” value [3, 4]?
A: good

Q: What about the “Cell viability Epidermis” value [3, 4] of the same molecule?
A: good

Q: What about the “Cell viability Dermis” value [3, 5] of the same molecule?
A: good

Q: What about the “Cell viability Epidermis” value [3, 5] of the same molecule?
A: fairly good
